Test results: patent US6592893B1, “Transdermal patch and topical compositions comprising propylnorapomorphine” (priority 1998, dated 2003)

How the values were obtained:
[1] = i.v., s.c., i.m., rectal, sublingual or intranasal route; cited from earlier work
[2] = continuous subcutaneous infusion, 2-5 mg/hour; cited from earlier work
[3] = in vitro cell permeation study with guinea-pig skin (Type III patch); type: in vitro ADME
Procedure: Then, three particular non-limiting examples of the pharmaceutical composition used to form the matrix of a Type III patch will be illustrated (FIG. 3). The Type III patch, containing a matrix made up of these three types of formulations, will then be “tested” on guinea-pig skin, to analyse the permeation of the active principle, both with regard to the accumulation of active principle over 48 hours (FIG. 4) and with regard to the flow (also over 48 hours, FIG. 5).

[4] = activity compared with APO; conditions: greater than that of APO
Procedure: For this reason, when said compounds are given at suitable doses over 24 hours, effects which are rather more beneficial than those of APO are obtained.

[5] = toxicity compared with APO
[6] = half-life compared with APO
[7] = accelerated stability test of the patch formulation; type: physicochemical; conditions: with antioxidant (sodium metabisulphite), 15 days at 40° C. and 75% RH

| SMILES | latent period (attack) [1] | local side effect at the infusion site [2] | skin permeability [3] | activity relative to APO [4] [times] | toxicity relative to APO [5] | half-life relative to APO [6] | chemical stability in the formulation of the patch [7] |
| --- | --- | --- | --- | --- | --- | --- | --- |
| CN1CCc2cccc3c2[C@H]1Cc1ccc(O)c(O)c1-3 [Apomorphine] | about 15 ′ | subcutaneous granulomas form around the infusion site |  |  |  |  |  |
| CCCN1CCc2cccc3c2[C@H]1Cc1ccc(O)c(O)c1-3.Cl [Compound (1), R(−)-propylnorapomorphine hydrochloride] |  |  | sufficient | 10 | lower | greater | demonstrated |
| CCCN1CCc2cccc3c2[C@@H]1Cc1ccc(O)c(O)c1-3.Cl [Compound (2), S(+)-propylnorapomorphine hydrochloride] |  |  |  | 10 | lower | greater |  |
